We go through 6 compounds from article PMC11432771, “Sphaerococcenol A Derivatives: Design, Synthesis, and Cytotoxicity” (Marine Drugs, 2024).

Molecules are shown by their SMILES.

Test [1] has as its system MCF-7 cells. Put plainly: MTT cytotoxicity assay, MCF-7 cells. Type of test: cell-based. Particulars: for IC50: MTT assay, 24 h, 1–100 µM, 95% confidence interval in parentheses; for SI (MCF-7): SI = IC50 of FL83B/IC50 on MCF-7. From the text:
(§1) Three malignant cell lines (between passages 10 and 25) obtained from the DMSZ-German Collection of Microorganisms and Cell Cultures GmbH biobank were used: A549 (lung carcinoma), DU-145 (prostate carcinoma), and MCF-7 (breast adenocarcinoma). MCF-7 (ACC-115) and DU-145 (ACC-261) cells were maintained in RPMI 1640 medium (Merck, Darmstadt, Germany) supplemented with 10% FBS (fetal bovine serum, Biowest, Riverside, MO, USA) and 1% antimycotic and antibiotic solution (Biowest, Nuaillé, France). A549 (ACC-107) cells were maintained in DMEM:F12 medium (Merck, Darmstadt, Germany) and also supplemented with 10% FBS (Biowest, Riverside, MO, USA) and a 1% solution of antimycotic and antibiotic (Biowest, Nuaillé, France). FL83B hepatocytes (FL83B; ATCC: CLR-2390) were used as the non-malignant cell line. The cells were cultured in F-12K medium supplemented with FBS 10% (Biowest, Riverside, MO, USA) and 1% solution of antimycotic and antibiotic (Biowest, Nuaillé, France).
(§2) The effects of sphaerococcenol A and its analogues (1–6) on the viability of malignant cell lines were studied through three distinct assays, 3-(4,5-dimethylthiazol-2-yl)-2,5-diphenyltetrazolium bromide (MTT), lactate dehydrogenase (LDH) activity, and calcein-AM, targeting different cellular biomarkers. Untreated cells with DMSO (<0.2%) were used as control, and saponin (0.4 mg/mL) (Sigma, Darmstadt, Germany) was used as the positive control for cell death.
(§3) The cells were incubated with compounds at different concentrations (1–100 µM) for 24 h. After the 24 h was over, cells were washed with PBS buffer (pH = 7.4) and incubated for 60 min with the MTT solution (1.2 mM) previously prepared in a fresh medium. The MTT solution was then removed, and 100 µL of dimethyl sulfoxide (DMSO) was added to dissolve the formazan crystals. The results were expressed as the half-maximal inhibitory concentration (IC50) after reading the absorbance at 570 nm using a microplate reader (Synergy H1, BioTek Instruments, USA). The selectivity index (SI) was calculated as the ratio of the IC50 value for a normal cell line to the IC50 value for the corresponding tumor cell line (SI = IC50 of non-malignant cell line/IC50 of malignant cell line), where an SI ≥ 2 of a compound represents a selective toxicity towards malignant cells, while an SI value < 2 is considered generally toxic.
(§4) The data were obtained from at least three independent experiments (n = 3) carried out in triplicate and presented as mean ± standard error of the mean (SEM). The data were checked for normality and homoscedasticity. […] A one-way analysis of variance (ANOVA) with Dunnett′s multiple comparison of group means was employed to determine significant differences to the control treatment and/or a two-way ANOVA with Bonferroni’s test. All other post hoc analyses were conducted using Tukey’s test. The differences were considered significant at a level of 0.05 (p < 0.05). The inhibitory concentrations (IC50) were determined by means of the equation y = 100/(1 + 10(x − logIC50)). All data were analyzed using the software SPSS v28.0.0.0 (SPSS Inc., Chicago, IL, USA) and GraphPad v8.0.2 (GraphPad Software, Inc., La Jolla, CA, USA).
For orientation: Formazan colour is commonly taken as a measure of viable cells.

The subject of test [2] is A549 cells. The test is described as follows: MTT cytotoxicity assay, A549 cells. It is filed as cell-based. Particulars: for IC50: MTT assay, 24 h, 1–100 µM, 95% confidence interval in parentheses; for SI (A549): SI = IC50 of FL83B/IC50 on A549.
Source text: as §1, §2, §3, §4

Test [3] relates to DU-145 cells. The test is described as follows: MTT cytotoxicity assay, DU-145 cells. Type of test: cell-based. Particulars: for SI (DU-145): SI = IC50 of FL83B/IC50 on DU-145; for IC50: Homo sapiens, DU-145, MTT assay, 24 h, 1–100 µM, 95% confidence interval in parentheses.
Source text: as §1, §2, §3, §4

Test [4] deals with FL83B hepatocytes. The test is described as follows: MTT cytotoxicity assay, non-malignant FL83B hepatocytes. It is filed as cell-based. Particulars: non-malignant cell line, 24 h, 1–100 µM, 95% confidence interval in parentheses.
Source text: Three malignant cell lines (between passages 10 and 25) obtained from the DMSZ-German Collection of Microorganisms and Cell Cultures GmbH biobank were used: A549 (lung carcinoma), DU-145 (prostate carcinoma), and MCF-7 (breast adenocarcinoma). MCF-7 (ACC-115) and DU-145 (ACC-261) cells were maintained in RPMI 1640 medium (Merck, Darmstadt, Germany) supplemented with 10% FBS (fetal bovine serum, Biowest, Riverside, MO, USA) and 1% antimycotic and antibiotic solution (Biowest, Nuaillé, France). A549 (ACC-107) cells were maintained in DMEM:F12 medium (Merck, Darmstadt, Germany) and also supplemented with 10% FBS (Biowest, Riverside, MO, USA) and a 1% solution of antimycotic and antibiotic (Biowest, Nuaillé, France). FL83B hepatocytes (FL83B; ATCC: CLR-2390) were used as the non-malignant cell line. The cells were cultured in F-12K medium supplemented with FBS 10% (Biowest, Riverside, MO, USA) and 1% solution of antimycotic and antibiotic (Biowest, Nuaillé, France). […]
as §3, with “After the 24 h was over, cells were washed with PBS buffer (pH = 7.4) and incubated for 60 min with the MTT solution (1.2 mM) previously prepared in a fresh medium. The MTT solution was then removed, and 100 µL of dimethyl sulfoxide (DMSO) was added to dissolve the formazan crystals.” left out
The data were obtained from at least three independent experiments (n = 3) carried out in triplicate and presented as mean ± standard error of the mean (SEM). […] The inhibitory concentrations (IC50) were determined by means of the equation y = 100/(1 + 10(x − logIC50)). All data were analyzed using the software SPSS v28.0.0.0 (SPSS Inc., Chicago, IL, USA) and GraphPad v8.0.2 (GraphPad Software, Inc., La Jolla, CA, USA).

Test [5] has as its system MCF-7 cells. Details: method as in PMID 35378501. The conditions noted are these: previous studies; cited from earlier work.
Test [6] concerns U373 cells. More on the design: method as in PMID 20045651. The conditions noted are these: inhibiting the cell entry into the mitosis phase; cited from earlier work.
Test [7] deals with A549, DU-145, and MCF-7 malignant cells. The test is described as follows: MTT cytotoxicity assay, stated across the three malignant cell lines. Type of test: cell-based. Particulars: SI = IC50 of FL83B/IC50 of malignant cell line; over A549, DU-145, MCF-7.
Source text: Three malignant cell lines (between passages 10 and 25) obtained from the DMSZ-German Collection of Microorganisms and Cell Cultures GmbH biobank were used: A549 (lung carcinoma), DU-145 (prostate carcinoma), and MCF-7 (breast adenocarcinoma). MCF-7 (ACC-115) and DU-145 (ACC-261) cells were maintained in RPMI 1640 medium (Merck, Darmstadt, Germany) supplemented with 10% FBS (fetal bovine serum, Biowest, Riverside, MO, USA) and 1% antimycotic and antibiotic solution (Biowest, Nuaillé, France). […]
as §3, with “After the 24 h was over, cells were washed with PBS buffer (pH = 7.4) and incubated for 60 min with the MTT solution (1.2 mM) previously prepared in a fresh medium. The MTT solution was then removed, and 100 µL of dimethyl sulfoxide (DMSO) was added to dissolve the formazan crystals.” left out
The data were obtained from at least three independent experiments (n = 3) carried out in triplicate and presented as mean ± standard error of the mean (SEM). […] The inhibitory concentrations (IC50) were determined by means of the equation y = 100/(1 + 10(x − logIC50)). […]

By IC50 is commonly meant the point on the concentration scale where inhibition reaches its midpoint. In the case of `CCCSC1CC(=O)[C@@](C)(O)[C@H]2[C@@H]3C=CC[C@@H](C(C)C)[C@@]3(CBr)CC[C@]12C` (single isomer, unassigned) [Compound 3], in test [1], the IC50 was 14.3 µM and the “SI (MCF-7)” value was found to be 4.0. In addition, in test [2], the concentration for half-maximal inhibition (IC50) is 22.5 µM and the “SI (A549)” value is listed as 2.5. Moreover, the “SI (DU-145)” value in test [3] worked out at 2.8. In addition, the IC50 in test [4] worked out at 56.7 µM.

With `CCCSC1CC(=O)[C@@](C)(O)[C@H]2[C@@H]3C=CC[C@@H](C(C)C)[C@@]3(CBr)CC[C@]12C` (single isomer, unassigned) [Compound 2], in test [1], the IC50 stood at 70.3 µM and the “SI (MCF-7)” value was 0.7. In test [2] (Homo sapiens, A549, 24 h), the IC50 stood at 33.8 µM. Besides, in test [2], the “SI (A549)” value is given as 1.4. Further, the “SI (DU-145)” value in test [3] stood at 1.9.

On to `CC(C)C1CC=CC2C3C(C)(CCC(O)C3(C)O)CCC21CBr` (stereo not drawn) [Compound 6], for which the “SI (MCF-7)” value in test [1] is 2.9. Further, the “SI (A549)” value in test [2] was determined as 1.9. The “SI (DU-145)” value in test [3] is 3.1.

`CC(C)[C@@H]1CC=C[C@H]2[C@H]3[C@@](C)(C=CC(=O)[C@@]3(C)O)CC[C@]12CBr` [Sphaerococcenol A]: the IC50 worked out at 6.53 µM in test [1] (Homo sapiens, MCF7, 24 h); 15 µM in test [2] (Homo sapiens, A549, 24 h); 3.75 µM in test [3]; 37.4 µM in test [4]. In addition, the “SI (MCF-7)” value in test [1] worked out at 5.7. For the same compound, the “SI (A549)” value in test [2] came to 2.5. The “events accompanying decrease in MCF-7 cell viability” value in test [5] is “production of hydrogen peroxide, changes in mitochondrial membrane potential, the stimulation of Caspase-9 activity, and nuclear morphology alterations”. In test [3], the “SI (DU-145)” value was 10.0. Also, in test [6], the “effect on human apoptosis-resistant U373 cells” value is listed as “cytostatic effect”.

With `CC(C)C1CC=CC2C3C(C)(CCC(O)C3(C)O)CCC21CBr` (stereo not drawn) [Compound 5], in test [1], the “SI (MCF-7)” value is on record as 2.6. In test [2], the “SI (A549)” value is reported as 3.7. In addition, the “SI (DU-145)” value in test [3] turned out to be 4.4.

With `CC(C)[C@@H]1CC=C[C@H]2[C@@H]3[C@](C)(O)C(=O)CC(SCc4ccccc4)[C@@]3(C)CC[C@]12CBr` (stereo partly drawn) [Compound 4, (4S,4aS,4bS,8S,8aS,10aS)-1-(Benzylthio)-8a-(bromomethyl)-4-hydroxy-8-isopropyl-4,10a-dimethyl-1,4,4a,4b,7,8,8a,9,10,10a-decahydrophenanthren-3(2H)-one], the “SI (MCF-7)” value in test [1] is 1.3. The 50% inhibitory concentration (IC50) in test [2] (Homo sapiens, A549, 24 h) came out at 35.5 µM; in test [3] it was 70.1 µM; in test [4], 40.3 µM. For the same compound, in test [2], the “SI (A549)” value was determined as 1.1. Besides, the “selectivity index across the malignant cell lines” value in test [7] is recorded as 0.6–1.3. The “SI (DU-145)” value in test [3] stood at 0.6.
